# Data reported in article PMC6044610 (ACS Omega, 2016).
# Key:
# [1] = cited from earlier work
# [2] = test system: P. falciparum (CQ-resistant) W2 strain; assay: In vitro antimalarial SYBR Green I fluorescence assay, Pf W2; type: cell-based; details: Plasmodium falciparum, W2, 72 h, read-out: IC50 Pf W2
# [3] = test system: P. falciparum (3D7) trophozoite development; type: cell-based, Plasmodium falciparum; details: 5 μM, ~24 h treatment from midring stage
structure (smiles),measurement,setting,value
"CCN(CC)CCCC(C)Nc1ccnc2cc(Cl)ccc12 (stereo not drawn) [CQ, chloroquine]","log Kass with heme, reported value",[1],5.15
same,IC50,[2],430.6 ± 1.05 nM
same,hemozoin in the food vacuole / parasite development after treatment,[3],no hemozoin was seen in the food vacuole
